From US11702419B2, “Heterocyclic compound and use thereof” (Takeda Pharmaceutical Company Limited, priority 2018, dated 2023)

biological target: T1, NMDA receptor composed of four subunits consisting of two sets of heterodimers of NR1 and NR2B (human GRIN1 and GRIN2B-expressing HEK293 cells) (Homo sapiens, UniProt Q13224); assay: NR2B Ca2+ influx assay; type: cell-based; conditions: 10 μM compound, glutamic acid/glycine-induced Ca2+ influx, FLIPR, read-out: inhibitory rate (10 μM compound concentration)
T1 construct: host or cells: HEK293 (tetracycline-inducible expression)
Description: In order to confirm an “antagonistic action on an NMDA receptor containing the NR2B subunit” which the compound of the present invention has, inhibitory effect on the NMDA receptor activation was evaluated using “NMDA receptor composed of four subunits consisting of two sets of heterodimers of NR1 and NR2B”-expressing human fetal renal cells, specifically human glutamate ionotropic receptor NMDA type subunit 1 (GRIN1) and human glutamate ionotropic receptor NMDA type subunit 2B (GRIN2B)-expressing HEK293 cells.
As an index of the NMDA receptor activation, intracellular calcium ion (Ca^2+) influx caused by bonding of glycine and glutamate to NR1 and NR2B respectively was used. HEK293 cells were purchased from ChanTest. The cells were cultured in a DMEM/F-12 (COSMO BIO, 10-092-CM) medium containing 10% FBS (fetal bovine serum, AusGene), 100 units/mL penicillin, 100 μg/mL streptomycin, 500 μg/mL neomycin, 100 μg/mL Zeocin and 5 μg/mL Blasticidin at 37° C., 5% CO2. The cells were detached from flask with trypsin the day before the assay, suspended in a seeding medium (DMEM (Invitrogen, 31053) containing 10% FBS, 100 units/mL penicillin and 100 μg/mL streptomycin) at 8×10^5 cells/mL, seeded by 25 μL per well in a 384-well plate (Falcon, 356663) at 20000 cells/well, and cultured overnight in an incubator. On the day of the assay, tetracycline (Wako Pure Chemical Industries, 209-16561) was diluted with the seeding medium at 2 μg/mL, and the dilution was added at 25 μL/well to the plate seeded with the cells, and the cells were cultured for 2 hr in an incubator. Thereafter, the medium was removed, and the cells were washed with 50 μL/well of assay buffer (137 mM NaCl, 4 mM KCl, 1.8 mM CaCl2, 10 mM HEPES (pH 7.2), 10 mM Glucose, and 0.1% BSA). Then, a loading buffer (assay buffer containing 2.5 μM Fluo-4AM, 2 mM Amaranth and 1 mM Tartrazine) was added thereto at 25 μL/well, and loading was performed in the incubator for 30 min, and then at room temperature for 15 min. The test compound was diluted with the above-mentioned assay buffer so as to adjust the concentration to 30 μM, the obtained solution (25 μL) was added thereto (the final concentration 10 μM), and the cells were stood for 15 min at room temperature. Using FLIPR (Molecular Devices), 25 μL of an assay buffer containing 30 μM glutamic acid and 30 μM glycine was added thereto, and the fluorescence signal was measured every 3 seconds for 5 min. The relative activity value (inhibitory rate) was calculated when the cumulative total value of the fluorescence value of a well added with a buffer free of glutamic acid and glycine, relative to the cumulative total value of the fluorescence value of each well are regarded as 100% inhibition. The obtained value was evaluated as an inhibitory activity.

T1 sequence (Q13224 27-1484, other chains not shown): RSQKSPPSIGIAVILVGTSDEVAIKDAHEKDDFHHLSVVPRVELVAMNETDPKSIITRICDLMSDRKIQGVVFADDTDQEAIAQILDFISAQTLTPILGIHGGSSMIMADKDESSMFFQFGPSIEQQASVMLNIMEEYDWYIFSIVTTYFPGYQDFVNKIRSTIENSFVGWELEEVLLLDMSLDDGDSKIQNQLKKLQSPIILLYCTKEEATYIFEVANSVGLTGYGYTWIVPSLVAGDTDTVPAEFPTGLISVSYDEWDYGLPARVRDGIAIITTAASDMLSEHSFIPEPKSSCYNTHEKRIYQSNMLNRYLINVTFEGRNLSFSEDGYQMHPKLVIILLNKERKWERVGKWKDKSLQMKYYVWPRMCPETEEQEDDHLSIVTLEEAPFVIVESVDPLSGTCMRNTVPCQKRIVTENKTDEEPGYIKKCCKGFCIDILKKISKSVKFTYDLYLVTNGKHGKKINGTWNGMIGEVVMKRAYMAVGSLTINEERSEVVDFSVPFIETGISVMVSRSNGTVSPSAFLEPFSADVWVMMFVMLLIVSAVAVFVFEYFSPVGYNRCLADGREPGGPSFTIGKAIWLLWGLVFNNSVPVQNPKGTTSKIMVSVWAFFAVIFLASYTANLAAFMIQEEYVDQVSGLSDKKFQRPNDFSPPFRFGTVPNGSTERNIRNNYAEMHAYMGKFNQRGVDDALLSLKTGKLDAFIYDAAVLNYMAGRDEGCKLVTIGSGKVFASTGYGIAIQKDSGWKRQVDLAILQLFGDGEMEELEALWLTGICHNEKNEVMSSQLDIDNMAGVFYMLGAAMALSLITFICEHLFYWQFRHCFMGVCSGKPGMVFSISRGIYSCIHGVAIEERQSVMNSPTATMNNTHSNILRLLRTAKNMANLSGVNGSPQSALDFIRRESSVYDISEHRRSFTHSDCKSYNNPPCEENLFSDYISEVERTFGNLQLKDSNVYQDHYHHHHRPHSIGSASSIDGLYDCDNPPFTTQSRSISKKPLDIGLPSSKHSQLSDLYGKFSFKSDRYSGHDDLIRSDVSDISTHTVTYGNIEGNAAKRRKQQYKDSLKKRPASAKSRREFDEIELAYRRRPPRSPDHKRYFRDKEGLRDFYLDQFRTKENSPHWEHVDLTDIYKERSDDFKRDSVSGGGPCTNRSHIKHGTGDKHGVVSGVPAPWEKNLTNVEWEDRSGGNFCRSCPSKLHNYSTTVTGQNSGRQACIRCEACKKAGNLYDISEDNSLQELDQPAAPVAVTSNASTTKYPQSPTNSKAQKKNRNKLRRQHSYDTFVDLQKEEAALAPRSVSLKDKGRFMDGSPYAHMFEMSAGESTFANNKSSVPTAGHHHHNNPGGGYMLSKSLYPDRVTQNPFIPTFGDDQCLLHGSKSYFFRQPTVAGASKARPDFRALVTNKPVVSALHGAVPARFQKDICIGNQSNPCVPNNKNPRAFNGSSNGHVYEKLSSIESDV

| inhibition at 10 µM [%] | Compound |
| --- | --- |
| 97 | O=C(NCc1cnn2ncccc12)c1cnc(OC(F)F)c(Cl)c1 [Example 8, 5-chloro-6-(difluoromethoxy)-N-(pyrazolo[1,5-b]pyridazin-3-ylmethyl)nicotinamide] |
| 96 | Cn1ccn2ncc(CNC(=O)c3ccc(Cl)c(F)c3)c12 [Example 63, 4-chloro-3-fluoro-N-((1-methyl-1H-imidazo[1,2-b]pyrazol-7-yl)methyl)benzamide] |
| 87 | O=C(NCc1cnn2ccn(C(F)F)c12)c1cnc(OC(F)F)c(F)c1 [Example 76, 6-(difluoromethoxy)-N-{[1-(difluoromethyl)-1H-imidazo[1,2-b]pyrazol-7-yl]methyl}-5-fluoropyridine-3-carboxamide] |
| 90 | Cc1nn2ncc(CNC(=O)c3cnc(OC(F)F)c(F)c3)c2n1C(F)F [Example 74, 6-(difluoromethoxy)-N-{[1-(difluoromethyl)-2-methyl-1H-pyrazolo[1,5-b][1,2,4]triazol-7-yl]methyl}-5-fluoropyridine-3-carboxamide] |
| 98 | Cn1ccn2ncc(CNC(=O)c3ccc(OC(F)(F)F)cc3)c12 [Example 66, N-((1-methyl-1H-imidazo[1,2-b]pyrazol-7-yl)methyl)-4-(trifluoromethoxy)benzamide] |
| 97 | O=C(NCc1nnn2ncccc12)c1ccc(OC(F)F)c(F)c1 [Example 33, 4-(difluoromethoxy)-3-fluoro-N-([1,2,3]triazolo[1,5-b]pyridazin-3-ylmethyl)benzamide] |
| 97 | O=C(NCc1cnn2ccncc12)c1ccc(OC(F)(F)F)c(F)c1 [Example 16, 3-fluoro-N-(pyrazolo[1,5-a]pyrazin-3-ylmethyl)-4-(trifluoromethoxy)benzamide] |
| 87 | COc1ncc(C(=O)NCc2cnn3ncccc23)cc1Cl [Example 9, 5-chloro-6-methoxy-N-(pyrazolo[1,5-b]pyridazin-3-ylmethyl)nicotinamide] |
| 54 | Cc1nn2ncc(CNC(=O)c3cnc(OC(F)F)c(Cl)c3)c2n1CC(F)F [Example 77, 5-chloro-N-{[1-(2,2-difluoroethyl)-2-methyl-1H-pyrazolo[1,5-b][1,2,4]triazol-7-yl]methyl}-6-(difluoromethoxy)pyridine-3-carboxamide] |
| 88 | COc1ncc(C(=O)NCc2cnn3ccn(C)c23)cc1F [Example 61, 5-fluoro-6-methoxy-N-((1-methyl-1H-imidazo[1,2-b]pyrazol-7-yl)methyl)nicotinamide] |
| 97 | Cc1nn2ncccc2c1CNC(=O)c1ccc(OC(F)(F)F)c(F)c1 [Example 10, 3-fluoro-N-((2-methylpyrazolo[1,5-b]pyridazin-3-yl)methyl)-4-(trifluoromethoxy)benzamide] |
| 86 | COc1c(F)cc(C(=O)NCc2nnn3ccccc23)cc1F [Example 41, 3,5-difluoro-4-methoxy-N-([1,2,3]triazolo[1,5-a]pyridin-3-ylmethyl)benzamide] |
| 94 | O=C(NCc1nnn2cc(F)ccc12)c1ccc(OC(F)(F)F)cc1 [Example 1, N-((6-fluoro[1,2,3]triazolo[1,5-a]pyridin-3-yl)methyl)-4-(trifluoromethoxy)benzamide] |
| 97 | Cc1cnn2ncc(CNC(=O)c3ccc(OC(F)(F)F)c(F)c3)c2c1 [Example 21, 3-fluoro-N-((5-methylpyrazolo[1,5-b]pyridazin-3-yl)methyl)-4-(trifluoromethoxy)benzamide] |
| 91 | O=C(NCc1cnn2ccn(CC(F)F)c12)c1cnc(OC(F)F)c(Cl)c1 [Example 80, 5-chloro-N-[{1-(2,2-difluoroethyl)-1H-imidazo[1,2-b]pyrazol-7-yl]methyl}-6-(difluoromethoxy)pyridine-3-carboxamide] |
| 98 | Cc1ccc2c(CNC(=O)c3ccc(OC(F)(F)F)c(F)c3)cnn2n1 [Example 11, 3-fluoro-N-((6-methylpyrazolo[1,5-b]pyridazin-3-yl)methyl)-4-(trifluoromethoxy)benzamide] |

| inhibition at 10 µM [%] | Compound |
| --- | --- |
| 85 | Cc1nn2cnccc2c1CNC(=O)c1cnc(OC(F)F)c(Cl)c1 [Example 56, 5-chloro-6-(difluoromethoxy)-N-((2-methylpyrazolo[1,5-c]pyrimidin-3-yl)methyl)nicotinamide] |
| 93 | O=C(NCc1cnn2nccnc12)c1ccc(OC(F)(F)F)c(F)c1 [Example 47, 3-fluoro-N-(pyrazolo[1,5-b][1,2,4]triazin-8-ylmethyl)-4-(trifluoromethoxy)benzamide] |
| 96 | O=C(NCc1nnn2ncccc12)c1ccc(OC(F)(F)F)cc1 [Example 19, N-([1,2,3]triazolo[1,5-b]pyridazin-3-ylmethyl)-4-(trifluoromethoxy)benzamide] |
| 96 | Cc1ccnn2ncc(CNC(=O)c3cnc(OC(F)F)c(F)c3)c12 [Example 37, 6-(difluoromethoxy)-5-fluoro-N-((4-methylpyrazolo[1,5-b]pyridazin-3-yl)methyl)nicotinamide] |
| 97 | Cc1ccnn2ncc(CNC(=O)c3ccc(OC(F)F)c(F)c3)c12 [Example 36, 4-(difluoromethoxy)-3-fluoro-N-((4-methylpyrazolo[1,5-b]pyridazin-3-yl)methyl)benzamide] |
| 97 | Cc1cnn2nnc(CNC(=O)c3cnc(OC(F)F)c(F)c3)c2c1 [Example 50, 6-(difluoromethoxy)-5-fluoro-N-((5-methyl[1,2,3]triazolo[1,5-b]pyridazin-3-yl)methyl)nicotinamide] |
| 84 | COCc1nn2ncccc2c1CNC(=O)c1cnc(OC(F)F)c(F)c1 [Example 31, 6-(difluoromethoxy)-5-fIuoro-N-((2-(methoxymethyl)pyrazolo[1,5-b]pyridazin-3-yl)methyl)nicotinamide] |
| 97 | Cc1cn2ncc(CNC(=O)c3cnc(OC(F)F)c(F)c3)c2n1C [Example 85, 6-(difluoromethoxy)-N-[(1,2-dimethyl-1H-imidazo[1,2-b]pyrazol-7-yl)methyl]-5-fluoropyridine-3-carboxamide] |
| 85 | O=C(NCc1c(C2CC2)nn2ncccc12)c1cnc(OC(F)F)c(F)c1 [Example 28, N-((2-cyclopropylpyrazolo[1,5-b]pyridazin-3-yl)methyl)-6-(difluoromethoxy)-5-fluoronicotinamide] |
| 95 | CCn1ccn2ncc(CNC(=O)c3cnc(OC(F)F)c(Cl)c3)c12 [Example 84, 5-chloro-6-(difluoromethoxy)-N-[(1-ethyl-1H-imidazo[1,2-b]pyrazol-7-yl)methyl]pyridine-3-carboxamide] |
| 95 | COc1c(F)cc(C(=O)NCc2cnn3ccn(C)c23)cc1F [Example 62, 3,5-difluoro-4-methoxy-N-((1-methyl-1H-imidazo[1,2-b]pyrazol-7-yl)methyl)benzamide] |
| 98 | O=C(NCc1cnn2ncccc12)c1ccc(OC(F)F)c(Cl)c1 [Example 7, 3-chloro-4-(difluoromethoxy)-N-(pyrazolo[1,5-b]pyridazin-3-ylmethyl)benzamide] |
| 93 | Cc1nn2ccn(C)c2c1CNC(=O)c1cnc(OC(F)F)c(F)c1 [Example 73, 6-(difluoromethoxy)-N-[(1,6-dimethyl-1H-imidazo[1,2-b]pyrazol-7-yl)methyl]-5-fluoropyridine-3-carboxamide] |
| 97 | Cc1cnn2nnc(CNC(=O)c3cnc(OC(F)F)c(Cl)c3)c2c1 [Example 51, 5-chloro-6-(difluoromethoxy)-N-((5-methyl[1,2,3]triazolo[1,5-b]pyridazin-3-yl)methyl)nicotinamide] |
| 94 | O=C(NCc1nnn2ccccc12)c1ccc(OC(F)F)c(F)c1 [Example 35, 4-(difluoromethoxy)-3-fluoro-N-([1,2,3]triazolo[1,5-a]pyridin-3-ylmethyl)benzamide] |
| 94 | O=C(NCc1cnn2ccncc12)c1ccc(OC(F)F)c(F)c1 [Example 44, 4-(difluoromethoxy)-3-fluoro-N-(pyrazolo[1,5-a]pyrazin-3-ylmethyl)benzamide] |
